Series [1] has as its system CD4+ T cells. The experiment in a line: Multi-donor mixed lymphocyte reaction (mdMLR) assay. Type of series: cell-based, human. From the text:
The immunomodulatory potential of dye 2-labelled and non-labelled MSC-EV preparations were compared in a multi-donor mixed lymphocyte reaction assay (MLR) as described previously (Madel et al., 2020, Independent human mesenchymal stromal cell-derived extracellular vesicle preparations differentially affect symptoms in an advanced murine Graft-versus-Host-Disease model. bioRxiv, 2020.2012.2021.423658). Briefly, Ficoll prepared peripheral blood mononuclear cells (PBMC) of 12 healthy donors were mixed in equal proportions, aliquoted and stored in the vapour phase of liquid nitrogen until usage. After thawing 600,000 cells were seeded per well of a 96-well U-bottom shape plates (Corning, Kaiserslautern, Germany) and cultured in 10% human AB serum (produced in house) and 100 U/mL penicillin and 100 µg/mL streptomycin (Thermo Fisher Scientific) supplemented RPMI 1640 medium (Thermo Fisher Scientific) in a final volume of 200 μL per well, either in the presence or absence of MSC-EV preparations to be tested. After 5 days, cells were harvested, stained with a collection of different fluorescent labelled antibodies (CD4-BV785; BioLegend, San Diego, CA, USA; CD25-PE-Cy5.5; BD Bioscience; and CD54-AF700; EXBIO) and analysed on a Cytoflex flow cytometer (Software CytExpert 2.3, Beckman-Coulter). […]

For series [2], the system named is PBMCs. The experiment in a line: Uptake of dye 2-labelled MSC-EVs by immune cells of the mdMLR assay. It counts as cell-based, human. The note with it: 5 days with dye 2-labelled MSC-EVs. The method, then:
The MSC-EV preparations were stained with dye 2 of the invention according to the following protocol. Dye 2 was provided as a lyophilised powder. 1 mg of dye 2 was resuspended with 1 mL buffer to a final concentration of […]. Like CFDA-SE, the dye 2 solution was centrifuged for 10 min at 17,000 x g to reduce background noise to a minimum. Briefly, for the EV-labelling 25 μL of the MSC-EV preparations were incubated with 25 μL of a prepared, centrifuged dye 2 solution (0.2 μM) for 1 hour at 37° C. The sample was diluted 1:20 to a final volume of 1 mL prior to analysis. For EV uptake experiments dye 2-labelled MSC-EV preparations were cleared from EV unbound dye 2 by ultrafiltration. Briefly, after labelling with dye 2, the MSC-EVs were washed by via centrifugation at 12,000xg through Vivaspin 500 filters (Sartorius) for 10 min. The retentate was collected as labelled EV sample.
The immunomodulatory potential of dye 2-labelled and non-labelled MSC-EV preparations were compared in a multi-donor mixed lymphocyte reaction assay (MLR) as described previously (Madel et al., 2020, Independent human mesenchymal stromal cell-derived extracellular vesicle preparations differentially affect symptoms in an advanced murine Graft-versus-Host-Disease model. bioRxiv, 2020.2012.2021.423658). Briefly, Ficoll prepared peripheral blood mononuclear cells (PBMC) of 12 healthy donors were mixed in equal proportions, aliquoted and stored in the vapour phase of liquid nitrogen until usage. After thawing 600,000 cells were seeded per well of a 96-well U-bottom shape plates (Corning, Kaiserslautern, Germany) and cultured in 10% human AB serum (produced in house) and 100 U/mL penicillin and 100 µg/mL streptomycin (Thermo Fisher Scientific) supplemented RPMI 1640 medium (Thermo Fisher Scientific) in a final volume of 200 μL per well, either in the presence or absence of MSC-EV preparations to be tested. After 5 days, cells were harvested, stained with a collection of different fluorescent labelled antibodies (CD4-BV785; BioLegend, San Diego, CA, USA; CD25-PE-Cy5.5; BD Bioscience; and CD54-AF700; EXBIO) and analysed on a Cytoflex flow cytometer (Software CytExpert 2.3, Beckman-Coulter). Activated and non-activated CD4^+ T cells were discriminated by means of their CD25 and CD54 expression, respectively. Typically, 5 μL of MSC-EV preparations to be tested were applied into respective wells. The following antibodies were used to further discriminate subpopulations: CD8-BV650 (BioLegend), CD14-PO (EXBIO), CD19-ECD (Beckman Coulter) and CD56-APC (BioLegend). The evaluation of the data was carried out with the Kaluza software (Version 2.1, Beckman Coulter).
To investigate whether EV labelling with dye 2 of the invention allows the identification of EV-uptaking cells, the labelled EV uptake of the different immune cells within the mdMLR assay was examined. To this end, a pool of PBMCs derived from 12 healthy donors were cultured for 5 days in the presence of dye 2-labelled MSC-EVs (n=3) that had been cleared from excess dye 2 by ultrafiltration. Thereafter, cells were harvested, antibody labelled and analysed by flow cytometry. The content of dye 2-labelled cells within different PBMC subtypes was determined. […] In contrast, only proportions of the different lymphocytes appeared as dye 2 positive cells, i.e. 71% of all CD4^+ T cells (CD4^+ cells), 34% of all CD8^+ T cells (CD8^+ cells), 72% of all B cells (CD19^+ cells) and 15% of all NK cells (CD56^+ cells). […]

This is an account of results in US20240093034A1, “FLUORESCENT DYES” (EXOPHARM LIMITED, priority 2020, published 2024).

For `CCCCCCCCCCCCCCCCCCN(C)C(=O)c1ccccc1-c1c2ccc(=[N+](CC)CC)cc-2oc2cc(N(CC)CC)ccc12.[Cl-]` [Dye 2, Rhodamine B N-methyloctadecylamide], in series [1] (buffer solved dye alone), the “influence on activation status of CD4+ T cells” value is on record as “did not influence the activation status”. Moreover, the “reduction in CD4+ T cell activation” value in series [1] (dye 2-labelled MSC-EV preparations (n=3), versus non-labelled) is given as “comparable reduction”. In series [2], the “dye 2 positive B cells (CD19+ cells)” value is 72%, the “dye 2 positive CD4+ T cells” value was found to be 71%, the “dye 2 positive CD8+ T cells” value was 34% and the “dye 2 positive NK cells (CD56+ cells)” value is 15%. Besides, the “dye 2 positive monocytes (CD14+ cells)” value in series [2] is recorded as 99%.
